Assay results from patent EP0522203A1, “Protein from lactic acid bacteria” (PROBICOM RESEARCH B.V., priority 1991, dated 1993).
*1 amine or outer side, *2 acyl side, *3 side chain or, on linkers, in order; H or OH if unused. Where a SMILES comes first, the peptide text is derived from it. The star is where a group is joined. pNA = O=[N+]([O-])c1ccc(N*)cc1; Suc = O=C(CCC(=O)[*:2])[*:1]; Cbz = O=C(OCc1ccccc1)*; Bz = O=C(c1ccccc1)*

Test system: endopeptidase
Assay: Effect of potential inhibitors (chemical agents) on the endopeptidase activity (metenkaphalin hydrolysis, TLC)
Assay type: biochemical, L. lactis subsp. cremoris Wg2
Parameters: key to Inhibition: +: Inhibition; -: No inhibition detectable
Details: not given

| Compound | Inhibition | endopeptidase activity inhibited | restoration of the enzyme activity inhibited by β-mercaptoethanol |
| --- | --- | --- | --- |
| O=S(=O)(F)Cc1ccccc1 [PMSF, phenylmethylsulfonylfluoride] | + | inhibited |  |
| O=C(O)c1cc[c]([Hg][Cl])cc1 [pCMB, p-chloromercuribenzoate] | - | did not have an effect on the activity |  |
| CC1=CC(=O)c2c(O)cccc2C1=O [Plumbagin] | - |  | could not restore the enzyme activity |
| Hydroxylamine | - |  |  |
| O=S(=O)(O)c1cc[c]([Hg][Cl])cc1 [pCMBS, p-chloromercuribenzenesulfonate] | - | did not have an effect on the activity |  |
| CCN1C(=O)C=CC1=O [N-Ethylmaleimide] | - |  |  |
| COC(CNC(=O)c1ccccc1OCC(=O)O)[CH2][Hg][OH] (stereo not drawn) [Mersalyl, O-(3-hydroxymercuri-2-methoxypropyl)-carbamylphenoxyacetate] | - | did not have an effect on the activity |  |
| O=S(=O)(O)c1ccc2c(N=Nc3ccccc3[As](=O)(O)O)c(O)c(S(=O)(=O)O)cc2c1 [Thorin] | - |  |  |

Same assay, conditions: 1 mM chemical agent, purified enzyme 4 µg protein preincubated 10 min at 20°C; metenkaphalin 15 min at 30°C; TLC

| Compound | Inhibition |
| --- | --- |
| CCOC(=O)OC(=O)OCC [DEPC] | - |
| N[C@@H](CSSC[C@H](N)C(=O)O)C(=O)O [Cystine] | - |
| c1cnc2c(c1)ccc1cccnc12 [1,10-phenanthroline] | + |
| OCCS [β-Mercaptoethanol] | + |
| O[C@H](CS)[C@H](O)CS (racemic) [DTT, dithiothreitol] | - |

Same assay, conditions: chemical agent 1.0 mM

| Compound | endopeptidase activity inhibited |
| --- | --- |
| c1cnc2c(c1)ccc1cccnc12 [1,10-phenanthroline] | inhibited |
| O[C@H](CS)[C@H](O)CS (racemic) [DTT, dithiothreitol] | not |

Same assay, conditions: oxidizing reagents up to 5 mM

| Compound | restoration of the enzyme activity inhibited by β-mercaptoethanol |
| --- | --- |
| oxidized gluta thione | could not restore the enzyme activity |

Same assay, conditions: β-mercaptoethanol

| Compound | reversibility of the inhibition of the enzyme |
| --- | --- |
| OCCS [β-Mercaptoethanol] | irreversible |

Same assay, conditions: β-mercaptoethanol 1%

| Compound | endopeptidase activity inhibited |
| --- | --- |
| OCCS [β-Mercaptoethanol] | inhibited |

Test system: LEP I
Assay: not given
Details: cited from earlier work

| Compound | hydrolysis by LEP I |
| --- | --- |
| oxydized insulin β-chain | cannot hydrolyse |
| Glucagon | cannot hydrolyse |

Test system: endopeptidase from L. lactis subsp. cremoris Wg2
Assay: Substrate specificity: hydrolysis of peptides by the purified endopeptidase, analysed by thin layer chromatography
Assay type: biochemical
Parameters: key to Activity: +: hydrolysis; -: no hydrolysis detectable
Details: not given

| Compound | Activity | hydrolysis by the purified endopeptidase |
| --- | --- | --- |
| C[C@H](NC(=O)CCC(=O)O)C(=O)N[C@@H](C)C(=O)N[C@@H](C)C(=O)Nc1ccc([N+](=O)[O-])cc1 [Nsucc-Ala-Ala-Ala-pNA] | - |  |
| CC(C)C[C@H](NC(=O)OCc1ccccc1)C(=O)NCC(=O)NCC(=O)Nc1ccc([N+](=O)[O-])cc1 [Z-Leu-Gly-Gly-pNA] (Cbz-Leu-Gly-Gly-pNA) | - |  |
| C[C@H](N)C(=O)N[C@@H](C)C(=O)N[C@@H](C)C(=O)N[C@@H](C)C(=O)N[C@@H](C)C(=O)N[C@@H](C)C(=O)O [Ala6] | - |  |
| CC(C)C[C@H](NC(=O)[C@@H]1CCCN1C(=O)[C@H](C)NC(=O)[C@H](C)NC(=O)CCC(=O)O)C(=O)Nc1ccc([N+](=O)[O-])cc1 [Nsucc-Ala-Ala-Pro-Leu-pNA] (Suc-AAPL-pNA) | - |  |
| NCCCC[C@H](NC(=O)CNC(=O)c1ccccc1)C(=O)O [Bz-Gly-Lys] (Bz-Gly-Lys-OH) | - |  |
| C[C@H](NC(=O)[C@@H]1CCCN1C(=O)CN)C(=O)N1CCC[C@H]1C(=O)O [Gly-Pro-Ala-Pro] (H-GPAP-OH) | - |  |
| Neurotensin | + |  |
| CSCC[C@H](N)C(=O)NCC(=O)NCC(=O)O [Met-Gly-Gly] (H-Met-Gly-Gly-OH) | - |  |
| CSCC[C@H](NC(=O)[C@@H](N)Cc1ccccc1)C(=O)O [Phe-Met] (H-Phe-Met-OH) | - |  |
| NCC(=O)N1CCC[C@H]1C(=O)Nc1ccc([N+](=O)[O-])cc1 [Gly-Pro-pNA] (H-Gly-Pro-pNA) | - |  |
| C[C@H](NC(=O)[C@@H]1CCCN1C(=O)OCc1ccccc1)C(=O)O [Z-Pro-Ala] (Cbz-Pro-Ala-OH) | - |  |
| CSCC[C@H](NC(=O)[C@H](Cc1ccccc1)NC(=O)CNC(=O)CNC(=O)[C@@H](N)Cc1ccc(O)cc1)C(=O)O [Metenkaphalin, Tyrosyl-glycyl-glycyl-phenylalanyl-methionine] | + |  |
| CC(C)[C@H](NC(=O)CN)C(=O)N[C@@H](Cc1ccccc1)C(=O)O [Gly-Val-Phe] (H-Gly-Val-Phe-OH) | - |  |
| NCC(=O)NCC(=O)O [Gly-Gly] (H-Gly-Gly-OH) | - |  |
| O=C(NCC(=O)N1CCC[C@H]1C(=O)O)c1ccccc1 [Bz-Gly-Pro] (Bz-Gly-Pro-OH) | - |  |
| C[C@H](NC(=O)[C@H](Cc1ccccc1)NC(=O)OCc1ccccc1)C(=O)O [Z-Phe-Ala] | - |  |
| oxydized insulin β-chain | + | hydrolyzed |
| N[C@@H](Cc1ccc(O)cc1)C(=O)NCC(=O)NCC(=O)O [Tyr-Gly-Gly, Tyrosyl-glycyl-glycine] (H-Tyr-Gly-Gly-OH) | - |  |
| β-Casomorphin | - |  |
| C[C@H](N)C(=O)N[C@@H](C)C(=O)N[C@@H](C)C(=O)N[C@@H](C)C(=O)N[C@@H](C)C(=O)O [Ala5] | - |  |
| C[C@H](N)C(=O)N1CCC[C@H]1C(=O)Nc1ccc([N+](=O)[O-])cc1 [Ala-Pro-pNA] (H-Ala-Pro-pNA) | - |  |
| Glucagon | + |  |
| CC(C)C[C@H](NC(=O)[C@@H](N)CC(C)C)C(=O)O [Leu-Leu] | - |  |
| CC(C)[C@H](NC(=O)[C@@H](N)Cc1ccccc1)C(=O)O [Phe-Val] (H-Phe-Val-OH) | - |  |
| CC(C)C[C@H](NC(=O)[C@H](CC(C)C)NC(=O)[C@@H](N)CC(C)C)C(=O)O [Leu-Leu-Leu] (H-Leu-Leu-Leu-OH) | - |  |

Same assay, conditions: chromogenic substrates: TLC, hydrolysis also measured at A410

| Compound | Activity |
| --- | --- |
| O=C(O)CCC(=O)N[C@@H](Cc1ccccc1)C(=O)Nc1ccc([N+](=O)[O-])cc1 [Nsucc-Phe-pNA] | - |
| NCCCC[C@H](N)C(=O)Nc1ccc([N+](=O)[O-])cc1 [Lys-pNA] | - |

Same assay, conditions: hydrolysis of the substrate by purified endopeptidase, analysed by TLC

| Compound | Activity |
| --- | --- |
| β-Casein(184-202) (DMPIQAFLLYQEPVLGPVR; UniProt P02666 199-217, looked up, fragment) | + |
| β-Casein(203-209) (GPFPIIV; UniProt P02666 218-224, looked up, fragment) | + |
| CSCC[C@H](NC(=O)[C@H](CC(C)C)NC(=O)CNC(=O)[C@H](Cc1ccccc1)NC(=O)[C@H](Cc1ccccc1)NC(=O)[C@H](CCC(N)=O)NC(=O)[C@H](CCC(N)=O)NC(=O)[C@@H]1CCCN1C(=O)[C@H](CCCCN)NC(=O)[C@@H]1CCCN1C(=O)[C@@H](N)CCCNC(=N)N)C(N)=O [Substance P] | + |
| NCC(=O)N1CCC[C@H]1C(=O)NCC(=O)NCC(=O)O [Gly-Pro-Gly-Gly] (H-GPGG-OH) | - |
| CC(C)C[C@H](N)C(=O)NCC(=O)NCC(=O)O [Leu-Gly-Gly] (H-Leu-Gly-Gly-OH) | - |
| Bradykinin (RPPGFSPFR; Bradykinin; UniProt P01042 381-389, looked up) | + |
| β-Casein( 33- 48) (FQSEEQQQTEDELQDK; UniProt P02666 48-63, looked up, fragment) | - |
